# Laboratory results published in ChEMBL document CHEMBL3988442, “University of Dundee, Small-Polar-MMV Screening Library” (2021).
# “And” between values parts separate entries of the source, which are not always exact repeats. Equal values may be shown once.
# Experiments:
# [1] = target: Polyketide synthase Pks13 (Mycobacterium tuberculosis (strain ATCC 25618 / H37Rv), UniProt I6X8D2); assay: Mycobacterium tuberculosis Polyketide synthase 13 Thioesterase (PKS13); type: functional
# [2] = target: T1, Histidine--tRNA ligase (Leishmania infantum, UniProt A4I591); assay: Leishmania infantum Histidine tRNA synthetase (LdHisRS); type: functional
# T1 sequence (A4I591 whole entry): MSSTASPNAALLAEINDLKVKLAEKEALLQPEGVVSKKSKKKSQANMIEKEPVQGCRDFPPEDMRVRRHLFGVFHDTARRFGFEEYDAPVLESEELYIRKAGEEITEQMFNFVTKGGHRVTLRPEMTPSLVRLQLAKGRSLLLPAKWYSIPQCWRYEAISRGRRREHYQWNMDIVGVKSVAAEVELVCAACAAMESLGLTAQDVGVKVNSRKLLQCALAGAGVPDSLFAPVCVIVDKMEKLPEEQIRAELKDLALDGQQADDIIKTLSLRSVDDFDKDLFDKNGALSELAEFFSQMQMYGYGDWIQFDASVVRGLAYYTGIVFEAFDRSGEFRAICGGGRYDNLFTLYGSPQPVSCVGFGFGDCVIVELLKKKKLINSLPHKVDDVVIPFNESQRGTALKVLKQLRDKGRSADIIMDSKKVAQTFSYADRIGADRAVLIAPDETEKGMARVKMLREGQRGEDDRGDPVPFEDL
# [3] = target: Lysine--tRNA ligase (Plasmodium falciparum (isolate 3D7), UniProt Q8IDJ8); assay: Pf-KRS-1 (Lysyl-RNA Synthetase-1, KRS-1, cytosolic KRS) from Plasmodium falciparum. Inhibitor assay, 384 well plate, luminescence read.; type: functional
# [4] = tested on: Leishmania donovani; assay: Leishmania intramacrophage assay; type: functional, organism-based; details: Leishmania donovani
# [5] = target: T2, Coenzyme A biosynthesis bifunctional protein CoaBC (Mycobacterium tuberculosis (strain ATCC 25618 / H37Rv), UniProt P9WNZ1); assay: Biomol Green assay for MtCoaBC inhibitor, OD650 read; type: functional
# T2 sequence (P9WNZ1 whole entry): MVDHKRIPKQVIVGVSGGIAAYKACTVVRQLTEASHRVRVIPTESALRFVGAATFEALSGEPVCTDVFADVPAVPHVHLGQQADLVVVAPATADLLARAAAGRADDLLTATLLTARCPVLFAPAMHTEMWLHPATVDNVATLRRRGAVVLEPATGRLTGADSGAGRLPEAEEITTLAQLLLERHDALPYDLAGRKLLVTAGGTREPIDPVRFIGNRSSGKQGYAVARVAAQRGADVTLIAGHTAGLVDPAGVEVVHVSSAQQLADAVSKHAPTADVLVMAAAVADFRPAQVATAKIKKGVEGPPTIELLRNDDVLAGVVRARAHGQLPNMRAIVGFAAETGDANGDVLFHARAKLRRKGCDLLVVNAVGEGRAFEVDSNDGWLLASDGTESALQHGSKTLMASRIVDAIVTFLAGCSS
# [6] = In vitro enzyme assay to detect hydrolysis of chlorophenol red-beta-D-[…] directly proportional to the number of Toxoplasma stably expressing beta-galactosidase; type: functional, organism-based, Toxoplasma gondii; details: for IC50: Toxoplasma gondii
# [7] = target: ClpP1P2 (Mycobacterium tuberculosis (strain ATCC 25618 / H37Rv), UniProt P9WPC3+P9WPC5); assay: in vitro assay to detect presence of AMC directly proportional to the activity of ClpP1P2. GHDDI collaboration.; type: functional
# [8] = microbe, parasite or virus in culture; details: Mycobacterium tuberculosis, 96 h, read-out: pIC50 (converted)
# [9] = microbe, parasite or virus in culture; details: Mycobacterium tuberculosis, 72 h, read-out: pIC50 (converted)
# [10] = tested on: Plasmodium falciparum; assay: Calibr Malaria Delayed Death Assay SOP; type: functional, organism-based
smiles,measurement,setting,value
Cc1cccc(OC2CCN(c3nccnc3C#N)CC2)n1,IC50,[1],42.2 µM and 46 µM
Cc1ccc(NC(=O)c2nc3c(s2)CCCN3C(=O)C2CC2)cn1,IC50,[1],> 100 µM
Cc1n[nH]c(SCC(=O)N2C[C@H]3CC[C@@H]2CN(c2ncccn2)C3)n1,IC50,[1],> 100 µM
CC(C)(C)c1nc(CN(CCC2CCCCC2)CC(N)=O)no1,IC50,[1],> 100 µM
O=C(Nc1cnc(N2CCOCC2)nc1)c1ccc(C(F)(F)F)cc1,IC50,[1],22.3 µM and 20.4 µM
Cc1ccc(S(=O)(=O)Nc2ccc(=O)n(C)c2)cc1,IC50,[2],24.8 µM and 32.1 µM
same,IC50,[3],> 50.1 µM
same,IC50,[4],> 50.1 µM
CC(O)CN1CCC(CNCc2cccc(C(N)=O)c2)CC1 (stereo not drawn),IC50,[1],> 100 µM
NC(=O)c1cc(C2CC2)nc2ccc(F)cc12,IC50,[1],> 100 µM
CCOC1CC2(CCN(C(=O)Cc3ccccn3)CC2)C1,IC50,[1],> 100 µM
O=C(O)CSc1nccc(-c2ccc3c(c2)OCO3)n1,IC50,[1],16.4 µM and 18.6 µM
CS(=O)(=O)N1CCCC1c1cccc(Cc2ccccc2F)n1 (stereo not drawn),IC50,[1],> 100 µM
Cc1ncc(CN)c(-c2cn(C)c3ccccc23)n1,IC50,[1],89.1 µM and > 100 µM
CC(Nc1cnn(C)c(=O)c1Cl)c1ccc(F)c(F)c1 (stereo not drawn),IC50,[1],> 100 µM
CN(C)c1ccc(-c2nnc([C@H]3CCN(C4CCCCC4)C3)o2)cc1,IC50,[1],> 100 µM
O=C1CNc2ncnc(N3CCN(Cc4ccccc4F)CC3)c2N1,IC50,[1],> 100 µM
CCOCCC(=O)N1CCc2cccc(S(=O)(=O)N3CCOCC3)c2C1,IC50,[1],> 100 µM and 20.4 µM
CCN(Cc1nc2c(cnn2C)c(=O)[nH]1)c1ccccc1,IC50,[1],> 100 µM
c1ccc2c(c1)CN(c1ncnc3sc4c(c13)CCNC4)CCO2,IC50,[1],> 100 µM
CCc1noc(Cn2c(=O)c3c(C(F)(F)F)cc(C)nc3n2C)n1,IC50,[1],36 µM and 34.8 µM
CC(NC(=O)Nc1cccnc1N1CCCC1)c1nncn1C (stereo not drawn),IC50,[1],> 100 µM
O=c1[nH]c2cc3c(cc2cc1CN1CCCC1c1ccccn1)OCO3 (stereo not drawn),IC50,[1],> 100 µM and 70.3 µM
CCCn1nnc(NCc2ccc(-c3ccc(Br)cc3)o2)n1,IC50,[1],29.6 µM and > 100 µM
CCC(CNC(=O)COC)Oc1cccc(F)c1 (stereo not drawn),IC50,[1],> 100 µM
CCN1CC(C(=O)N2CCN(c3nsc4ccccc34)CC2)CCC1=O (stereo not drawn),IC50,[1],90.7 µM and 73 µM
CN(C)C(=O)c1cn[nH]c1C1(C)CCN(c2ncccn2)CC1,IC50,[1],> 100 µM
Cn1c(NCC(=O)N2CCCC2)c(C#N)c(=O)n(C)c1=O,IC50,[1],> 100 µM
CCC[C@H]1CN(S(C)(=O)=O)C[C@@H]1NC(=O)c1ccc(COC)cc1,IC50,[1],> 100 µM
Cc1ccc(C)c(-n2ncc(C(=O)NCC3COC(C)(C)O3)c2N)c1 (stereo not drawn),IC50,[1],> 100 µM
COC(=O)C(C)(C)NC(=O)c1cc2sc(N(C)C)nc2s1,IC50,[1],21.9 µM and 10.8 µM
O=C(NCc1ccc2c(c1)OCCO2)N1CCC(CO)CC1,IC50,[1],> 100 µM
COc1ccc2nc(C3CC3)cc(C(=O)NCc3noc(C)n3)c2c1,IC50,[1],21.6 µM and 21.4 µM
Cc1noc(CNc2ccc(CC(=O)N3CCSCC3)cc2)n1,IC50,[1],> 100 µM
CC(C)(C)c1cc(NC(=O)CN2CCC(N3CCNC3=O)CC2)on1,IC50,[1],> 100 µM
Nc1cc(C(=O)NCC2CCN(Cc3ccncc3F)C2)ccn1 (stereo not drawn),IC50,[1],> 100 µM
CCn1c(SCC(=O)N2CCCC2)nc2cc(C)[nH]c2c1=O,IC50,[1],> 100 µM
N#Cc1cccc(N2CCC(CO)(CCOc3ccccc3)CC2)n1,IC50,[1],48.2 µM and 33.8 µM
CCc1cccc(C)c1NC(=O)C1CC(=O)N(Cc2ccccn2)C1 (stereo not drawn),IC50,[1],> 100 µM
CN(C)c1ncnc2c1CCN(C(=O)c1cccnc1)CC2,IC50,[1],> 100 µM
COC(=O)c1ccc(NC2CCN(CC(F)(F)F)C2=O)cc1C (stereo not drawn),IC50,[1],> 100 µM
Cc1cc(C)n(-c2cncc(NCCNS(C)(=O)=O)n2)n1,IC50,[1],20.9 µM and 8.18 µM
CN(C[C@@H]1CCC[C@@H]2CN(c3ncccn3)C[C@@H]21)C1CC1,IC50,[1],> 100 µM
CC(C)OCc1ncn2c1CN(Cc1nccs1)CCC2,IC50,[1],> 100 µM
Cc1cn2c(=O)c(-c3ccnc(N4CCC[C@@H]4CO)n3)cnc2s1,IC50,[1],> 100 µM
Cc1nc(CNC(=O)N2CCN(c3ccc(Cl)cn3)CC2)sc1C,IC50,[1],42.5 µM and 31.5 µM
Cc1ccc(-c2cc(C(=O)NCCCc3csc(N)n3)[nH]n2)s1,IC50,[1],9.27 µM and 17 µM
Cc1cc(C)n(-c2nc(C(=O)NCCN3CCC(C)CC3)cs2)n1,IC50,[1],> 100 µM
CNC(=O)CNC1CC2(CCN(c3ncccn3)CC2)c2ccccc21 (stereo not drawn),IC50,[1],> 100 µM
COc1ccsc1C(=O)Nc1cc(Cl)c(=O)n(C)c1,IC50,[2],12.3 µM and 10.6 µM
same,IC50,[3],> 50.1 µM
same,IC50,[5],> 30.2 µM
COc1ccc2c(C(=O)N(C)C)cc(-c3cnc(N)nc3)nc2c1,IC50,[1],30.4 µM and 38.7 µM
Cc1cc(S(=O)(=O)Nc2cccc(I)c2)sc1C(=O)O,IC50,[1],6.1 µM and 15.1 µM
Cn1nc2c(cc1=O)CN(c1ncnc3ccsc13)CC2,IC50,[2],14.1 µM and 17.4 µM
same,IC50,[3],> 50.1 µM
same,IC50,[6],6.44 µM
O=C(c1ccc(-n2ccnc2)cc1)N1CCN(c2cnccn2)CC1,IC50,[1],> 100 µM
CCC(CC)C(=O)n1ccn(S(=O)(=O)c2ccc(C)cc2)c1=O,IC50,[1],20 µM and 19.7 µM
CC[C@H](C)[C@H](N)C(=O)Nc1nc(-c2cnc(N(C)C)nc2)cs1,IC50,[1],> 100 µM
O=C(Nc1nc2c(s1)CN(S(=O)(=O)C1CC1)CC2)c1cccc(Cl)c1,IC50,[1],12.2 µM and 20.2 µM
COc1ccc(-c2cc(C[C@@H]3C[C@H](N(C)C)C3(C)C)no2)cc1,IC50,[1],41.5 µM and > 100 µM
CSCc1ccc(N2CCC(C(O)Cc3ccccc3)CC2)nc1 (stereo not drawn),IC50,[1],> 100 µM
CCc1nnc(Nc2cccc(C3CCN(C(C)=O)CC3)n2)s1,IC50,[1],> 100 µM
Cc1cc(NCc2cccc(C#N)c2)ccc1Br,IC50,[1],20.6 µM and 18 µM
O=C(c1ccc2c(c1)CCCC2)N1CCn2ncnc2C1,IC50,[3],> 50.1 µM
same,IC50,[5],> 30.2 µM
COCCc1noc(-c2cn(CCc3ccccc3)nn2)n1,IC50,[1],20.8 µM and 8.65 µM
CCc1cccc(NS(=O)(=O)c2cc(C)c(C(=O)O)s2)c1,IC50,[1],16.6 µM and 11.6 µM
CN(C)C[C@@H]1[C@H]2CN(C(=O)c3cc(=O)[nH]c4ccc(F)cc34)C[C@@H]12,IC50,[1],98.5 µM and > 100 µM
CC(C)NC(=O)[C@@H]1CN(C(=O)C2CC2)C[C@]12Cc1ccccc1C(=O)N2,IC50,[1],> 100 µM
CC1CCc2nc(O)c(C(=O)NCCCN3CCN(C)CC3)cc2C1 (stereo not drawn),IC50,[1],31.6 µM and 37.1 µM
Cc1ccc(CNC(=O)NCCCn2nc3ccccn3c2=O)s1,IC50,[1],> 100 µM
Cn1cnnc1C1CCN(c2cncc(-n3cccn3)n2)CC1,IC50,[3],> 50.1 µM
same,IC50,[7],> 100 µM
same,IC50,[4],> 50.1 µM
CCc1ccc(-c2cc(C(F)(F)F)nc(N3CCC(N)CC3)n2)cc1,IC50,[8],15.3 µM
same,IC50,[2],26.9 µM and 24.6 µM
same,IC50,[3],> 50.1 µM
same,pIC50,[6],5.409
same,IC50,[6],2.22 µM
same,IC50,[9],13 µM
same,pIC50,[10],5.997
same,IC50,[10]; Plasmodium falciparum,1.03 µM
CCOCC1CCN(C(=O)C(c2ccccc2F)N(C)C)CC1 (stereo not drawn),IC50,[8],> 50.1 µM
same,IC50,[3],> 50.1 µM
same,IC50,[5],> 30.2 µM
same,IC50,[9],> 50.1 µM
Cn1nc2c(cc1=O)CN(c1ncnc3sccc13)CC2,IC50,[2],6.32 µM and 5.55 µM
same,IC50,[3],> 50.1 µM
same,IC50,[5],> 30.2 µM
same,IC50,[6],9.58 µM
COCCCN1CCc2cncnc2C1,IC50,[2],29.5 µM and 38.3 µM
same,IC50,[3],> 50.1 µM
Cn1nc2c(cc1=O)CN(CC1CCCCO1)CC2 (stereo not drawn),IC50,[2],23.7 µM and 25 µM
same,IC50,[3],> 50.1 µM
CCCn1nc2c(cc1=O)CN(c1ncnc3ccsc13)CC2,IC50,[2],43.5 µM and 33.5 µM
same,IC50,[3],> 50.1 µM
